Data on 26 molecules can be found in patent US6583154B1, “Compounds and methods which modulate feeding behavior and related diseases” (Amgen Inc., priority 1998, dated 2003).

The test system of data set [1] is Long-Evans male rats. Kind of data set: IP administration of compounds in fasted Long-Evans male rats, 2 hr food intake. It is filed as in vivo. Conditions: Rattus norvegicus; male Long Evans rats fasted 18-20 hr; 30 mg/kg (ip) in 2% tween; food given after 30 min, weighed 2 hr later; vs vehicle; read-out: inhibition of feeding (2 hr food intake). The protocol:
Protocol for IP Administration of Compounds in Fasted Long-Evans Male Rats
Male Long Evans rats (85-100 g)were obtained from Harlan (Indianapolis, Ind.) and were given at least a one week acclimation period to Ambients animal care facilities. Animals were individually housed and were provided ad libitum food and water. For testing, rats were fasted for 18-20 hr (overnight) prior to the start of the experiment. On the test day, test compounds or vehicle was administered via the intraperitoneal (i.p.) route of administration. Test compounds were suspended in a 2% tween solution; the 2% tween solution was used as the vehicle treatment (control group). Group sizes for each treatment were 6-8 animals. After 30 min, premeasured food was placed into the cages. Two hours later, the food was weighed again. The difference between 2 hr weight and the premeasured weight was taken as 2 hr food intake.

The test system of data set [2] is Male BALB-C mice. Kind of data set: IP administration of compounds in fasted male BALB-C mice, 2 hr food intake. Format: in vivo. Conditions: Mus musculus; male BALB-C mice fasted 18-20 hr; 30 mg/kg (ip) in 2% tween; food given after 30 min, weighed 2 hr later; vs vehicle; read-out: inhibition of feeding (2 hr food intake). An excerpt:
Protocol For IP Administration Of Compounds In Male BALB-C Mice.
Male BALB-C mice (20-25 g)were obtained from Charles Rivers (Wilmington, Mass.) and were given at least a one week acclimation period to Amgen's animal care facilities. Animals were housed 10/cage and were provided ad libitum food and water. For testing, mice were fasted for 18-20 hr (overnight) prior to the start of the experiment. On the day of the experiment, mice were removed from group housing and placed into individual cages (without food). Test compounds or vehicle was then administered via the intraperitoneal (i.p.) route of administration. Test compounds were suspended in a 2% tween solution; the 2% tween solution was used as the vehicle treatment (control group). Group sizes for each treatment were 6-8 animals. After 30 min, premeasured food was placed into the cages. Two hours later, the food was weighed again. The difference between 2 hr weight and the premeasured weight was taken as 2 hr food intake.

The term melting point denotes the temperature of the solid-liquid transition.

Where a name gives a salt, the structure may show the parent alone. Bounds are passed on as bounds.

For `Nc1nc(N2CCCCC2)c2[nH]c(-c3ccccc3)cc2n1` [Example 66e, 6-Phenyl-4-piperidylpyrrolo[3,2-d]pyrimidine-2-yl Amine Hydrochloride Hydrate], the inhibition in vivo at 30 mg/kg in data set [1] and in data set [2] was at least 10% in each case.

For `CCc1nc(N2CCCCC2)c2[nH]c(-c3ccccc3)cc2n1` [Example 68c, 2-Ethyl-6-phenyl-4-piperidylpyrrolo[3,2-d]pyrimidine Hydrochloride Monohydrate], the inhibition in vivo at 30 mg/kg in data set [1] and in data set [2] was at least 10% in each case.

For `Cl.c1ccc(-c2cc3nc(C4CC4)nc(N4CCCCC4)c3[nH]2)cc1` [Example 69c, 2-Cyclopropyl-6-phenyl-4-piperidylpyrrolo[3,2-d]pyrimidine Hydrochloride], the melting point was 285.4 to 286 °C (dec.). The inhibition in vivo at 30 mg/kg in data set [1] is at least 10%. For the same molecule, the inhibition in vivo at 30 mg/kg in data set [2] was at least 10%.

In the case of `COc1ccc(-c2cc3nc(C)nc(N4CCCCC4)c3[nH]2)cc1` [Example 71e, 4-Methoxy-1-(2-methyl-4-piperidylpyrrolo[4,5-d]pyrimidin-6-yl)benzene Hydrochloride Monohydrate], the inhibition in vivo at 30 mg/kg in data set [1] and in data set [2] was at least 10% in each case.

Turning to `Cc1nc(N2CCCCC2)c2[nH]c(-c3ccc(O)cc3)cc2n1` [Example 72, 2-methyl-4-piperidyl-6-(4-hydroxyphenyl)pyrrolo[3,2-d]pyrimidine], the inhibition in vivo at 30 mg/kg in data set [1] and in data set [2] was at least 10% each time.

Regarding `Cc1nc(N2CCCCC2)c2[nH]c(-c3cccs3)cc2n1.Cl` [Example 76c, 2-(2-Methyl-4-piperidylpyrrolo[4,5-d]pyrimidin-6-yl)thiophene Hydrochloride], the melting point is above 280 °C. In addition, the inhibition in vivo at 30 mg/kg in data set [1] is at least 10%. Further, in data set [2], the inhibition in vivo at 30 mg/kg is at least 10%.

With `Cc1nc(N2CCCCC2)c2[nH]c(C3CCCCC3)cc2n1` [Example 80d, 6-Cyclohexyl-2-methyl-4-piperidylpyrrolo[3,2-d]pyrimidine Hydrochloride Hydrate], the inhibition in vivo at 30 mg/kg in data set [1] and in data set [2] was at least 10% in each case.

For `Cc1nc(N2CCCCC2)c2[nH]c(-c3cc4ccccc4o3)cc2n1` [Example 85, 2-(2-Methyl-4-piperidylpyrrolo[4,5-d]pyrimidin-6-yl)benzo[b]furan Hydrochloride Monohydrate], the inhibition in vivo at 30 mg/kg in data set [1] and in data set [2] was at least 10% each time.

For `Cc1nc(N2CCCCC2)c2oc(-c3ccc(Cl)cc3)cc2n1` [Example 95c, 6-(4-Chlorophenyl)-2-methyl-4-piperidinylfurano-[3,2-d]-pyrimidine Hydrochloride Hydrate], the inhibition in vivo at 30 mg/kg in data set [1] and in data set [2] was at least 10% each time.

Take `Cc1nc(N2CCCCC2)c2[nH]c(C(C)(C)C)cc2n1` [Example 97, 6-(tert-Butyl)-2-methyl-4-piperidylpyrrolo[3,2-d]pyrimidine Hydrochloride Hydrate]: the inhibition in vivo at 30 mg/kg in data set [1] and in data set [2] was at least 10% each time.

Turning to `Cc1nc(N2CCCCC2)c2[nH]c(-c3ccn(S(=O)(=O)c4ccccc4)c3)cc2n1` [Example 101, 3-(2-Methyl-4-piperidylpyrrolo[4,5-d]pyrimidin-6-yl)-1-(phenylsulfonyl)pyrrole Hydrochloride Hydrate], the inhibition in vivo at 30 mg/kg in data set [1] and in data set [2] was at least 10% each time.

Consider `Cc1nc(N2CCCCC2)c2[nH]c(-c3cc(C)oc3C)cc2n1` [Example 108, 2,5-Dimethyl-3-(2-methyl-4-piperidylpyrrolo[4,5-d]pyrimidin-6-yl)furan Hydrochloride Monohydrate], for which the inhibition in vivo at 30 mg/kg in data set [1] and in data set [2] was at least 10% each time.

In the case of `Cc1nc(N2CCCCC2)c2[nH]c(-c3ccc(C(F)(F)F)cc3)cc2n1` [Example 111, 2-Methyl-4-piperidyl-6-[4-(trifluoromethyl)phenyl]pyrrolo[3,2-d]pyrimidine Hydrochloride Hydrate], the inhibition in vivo at 30 mg/kg in data set [1] and in data set [2] was at least 10% throughout.

Consider `Cc1nc(N2CCCCC2)c2[nH]c(-c3cc(F)c(F)c(F)c3)cc2n1` [Example 116, 2-Methyl-4-piperidyl-6-(3,4,5-trifluorophenyl)pyrrolo[3,2-d]pyrimidine Hydrochloride Hydrate], for which the inhibition in vivo at 30 mg/kg in data set [1] and in data set [2] was at least 10% each time.

As for `Cc1nc(N2CCCCC2)c2[nH]c(-c3ccc(Cl)c(Cl)c3)cc2n1` [Example 118, 6-(3,4-Dichlorophenyl)-2-methyl-4-piperidylpyrrolo[3,2-d]pyrimidine Hydrochloride Monohydrate], the inhibition in vivo at 30 mg/kg in data set [1] and in data set [2] was at least 10% throughout.

Consider `COc1ccc(-c2cc3nc(C)nc(N4CCCCC4)c3[nH]2)cc1F` [Example 119, 2-Fluoro-1-methoxy-4-[2-methyl-4-piperidylpyrrolo[4,5-d]pyrimidin-6-yl]benzene Hydrochloride Hydrate], for which the inhibition in vivo at 30 mg/kg in data set [1] and in data set [2] was at least 10% throughout.

`Cc1nc(N2CCCCC2)c2[nH]c(-c3ccc(F)c(F)c3)cc2n1` [Example 121, 6-(3,4-Difluorophenyl)-2-methyl-4-piperidylpyrrolo[3,2-d]pyrimidine Hydrochloride Hydrate]: the inhibition in vivo at 30 mg/kg in data set [1] and in data set [2] was at least 10% in each case.

`Cc1nc(N2CCCCC2)c2[nH]c(-c3cc(C(F)(F)F)cc(C(F)(F)F)c3)cc2n1.Cl` [Example 122, 6-((3,5-bis(Trifluoromethyl)phenyl)-2-methyl-4-piperidylpyrrolo[3,2-d]pyrimidine Hydrochloride]: the inhibition in vivo at 30 mg/kg in data set [1] and in data set [2] was at least 10% in each case.

As to `Cc1nc(N2CCCCC2)c2[nH]c(-c3ccc(SC(F)(F)F)cc3)cc2n1` [Example 123, Trifluoro[4-(2-methyl-4-piperidylpyrrolo[4,5-d]pyrimidin-6-yl)phenylthio]methane Hydrochloride Monohydrate], the inhibition in vivo at 30 mg/kg in data set [1] and in data set [2] was at least 10% in each case.

Take `Cc1nc(N2CCCCC2)c2[nH]c(-c3ccc(C)c(C)c3)cc2n1` [Example 124, 6-(3,4-Dimethylphenyl)-2-methyl-4-piperidylpyrrolo[3,2-d]pyrimidine Hydrochloride Hydrate]: the inhibition in vivo at 30 mg/kg in data set [1] and in data set [2] was at least 10% in each case.

Consider `Cc1nc(NC[C@H]2CC[C@H](CNS(=O)(=O)c3cccc4ccccc34)CC2)c2[nH]c(-c3ccccc3)cc2n1` [Example 194, trans-[(4-{[(2-Methyl-6-phenylpyrrolo[2,3-e]pyrimidin-4-yl)amino]methyl}cyclohexyl)methyl](naphthylsulfonyl)amine Hydrochloride Hydrate], for which the inhibition in vivo at 30 mg/kg in data set [1] and in data set [2] was at least 10% throughout.

For the molecule `Cc1nc(N2CCCCC2)c2[nH]c(-c3ccc(OC(F)(F)F)cc3)cc2n1` [Example 195d, Trifluoro[4-(2-methyl-4-piperidylpyrrolo[4,5-d]pyrimidin-6-yl)phenoxylmethane Hydrochloride Monohydrate], the inhibition in vivo at 30 mg/kg in data set [1] and in data set [2] was at least 10% each time.

Take `CCCc1nc(N2CCCCC2)c2[nH]c(-c3ccccc3)cc2n1` [Example 196c, 6-Phenyl-4-piperidyl-2-propylpyrrolo[3,2-d]pyrimidine Hydrochloride Monohydrate]: the inhibition in vivo at 30 mg/kg in data set [1] and in data set [2] was at least 10% throughout.

On to `Cc1nc(N2CC=CC2)c2[nH]c(-c3cccc(C(F)(F)F)c3)cc2n1` [Example 197d, 2-Methyl-4-(3-pyrrolinyl)-6-[3-(trifluoromethyl)phenyl]pyrrolo[3,2-d]pyrimidine Hydrochloride Monohydrate], for which the inhibition in vivo at 30 mg/kg in data set [1] and in data set [2] was at least 10% throughout.

For `Cc1nc(N2CC=CC2)c2[nH]c(-c3cccc(Cl)c3)cc2n1` [Example 198, 6-(3-Chlorophenyl)-2-methyl-4-(3-pyrrolinyl)pyrrolo[3,2-d]pyrimidine Hydrochloride Hydrate], the inhibition in vivo at 30 mg/kg in data set [1] and in data set [2] was at least 10% in each case.

With `Cc1nc(N2CCCCC2)c2sc(-c3ccc(F)cc3)cc2n1` [Example 217, 6-(4-Fluorophenyl)-2-methyl-4-piperidylthiopheno[3,2-d]pyrimidine Hydrochloride Hydrate], the inhibition in vivo at 30 mg/kg in data set [1] and in data set [2] was at least 10% in each case.
